Measured values taken from ChEMBL document CHEMBL2440105, “Synthesis and anti-parasitic activity of a novel quinolinone-chalcone series” (Bioorg Med Chem Lett, 2013).

How the values were obtained:
[1] = test system: THP-1; test: Cytotoxicity against human THP1 cells after 72 hrs by MTT assay; format: cell-based; settings: THP-1, 72 h
[2] = test system: Trypanosoma brucei brucei; test: Trypanocidal activity against bloodstream forms of Trypanosoma brucei brucei Lister 427 clone 221a after 72 hrs by AlamarBlue assay; format: functional, organism-based
[3] = test system: Leishmania infantum; test: Antileishmanial activity against Leishmania infantum MOM/MA671TMAP263 axenic amastigotes infected in THP1 cells after 72 hrs by luciferase reporter gene assay; format: functional, organism-based; settings: MOM/MA671TMAP263, THP-1, 72 h
[4] = test system: THP-1; test: Cytotoxicity against human THP1 cells by AlamarBlue assay

IC50 [3] [µM]	Structure (SMILES)	IC50 [1] [µM]	IC50 [2] [µM]	IC50 [4] [µM]
> 25	COc1ccc(/C=C/C(=O)c2c(O)c3ccccc3n(Cc3ccccc3)c2=O)cc1OC	28.7	5.68	–
13.5	COc1ccc(C2CC(c3c(O)c4ccccc4[nH]c3=O)=NN2c2ccccc2)cc1OC (stereo not drawn)	> 50	1.46	–
0.71	CC(=O)N1N=C(c2c(O)c3ccccc3[nH]c2=O)CC1c1ccccc1C (stereo not drawn)	4.15	1.43	–
2.1	Cc1ccc(/C=C/C(=O)c2c(O)c3ccccc3[nH]c2=O)cc1	> 50	> 10	–
> 50	Cc1ccccc1/C=C/C(=O)c1c(O)c2ccccc2[nH]c1=O	> 50	2.6	–
11.5	COc1cc(/C=C/C(=O)c2c(O)c3ccccc3[nH]c2=O)ccc1O	23.3	4.9	–
28.4	COc1cccc(/C=C/C(=O)c2c(O)c3ccccc3[nH]c2=O)c1	38.5	6.5	–
12.7	COc1ccc(/C=C/C(=O)c2c(O)c3ccccc3[nH]c2=O)cc1	> 50	> 10	–
7.5	COc1ccc(/C=C/C(=O)c2c(O)c3ccccc3[nH]c2=O)cc1OC	> 50	4.9	–
1.3	CC(C)(C)c1cc(/C=C/C(=O)c2c(O)c3ccccc3[nH]c2=O)cc(C(C)(C)C)c1O	26.2	3.3	–
3.1	O=C(/C=C/c1ccc(C(F)(F)F)cc1)c1c(O)c2ccccc2[nH]c1=O	> 50	> 10	–
26.9	O=C(/C=C/c1ccc([N+](=O)[O-])cc1)c1c(O)c2ccccc2[nH]c1=O	> 50	> 10	–
18.4	O=C(O)c1ccc(/C=C/C(=O)c2c(O)c3ccccc3[nH]c2=O)cc1	> 50	> 10	–
> 50	O=C(/C=C/C=C/c1ccccc1)c1c(O)c2ccccc2[nH]c1=O	> 50	> 10	–
20	CC(/C=C/C(=O)c1c(O)c2ccccc2[nH]c1=O)=C\c1ccccc1	> 50	> 10	–
24.8	CCn1c(=O)c(C(=O)/C=C/c2ccccc2C)c(O)c2ccccc21	> 50	> 10	–
> 50	CCn1c(=O)c(C(=O)/C=C/c2ccc(OC)c(OC)c2)c(O)c2ccccc21	> 50	> 10	–
> 25	Cc1ccccc1/C=C/C(=O)c1c(O)c2ccccc2n(Cc2ccccc2)c1=O	45.7	6.17	–
1.2	C[C@@H]1[C@H](O)[C@@H](C)/C=C/C=C/C=C/C=C/C=C/C=C/C=C/[C@H](O[C@@H]2O[C@H](C)[C@@H](O)[C@H](N)[C@@H]2O)C[C@@H]2O[C@](O)(C[C@@H](O)C[C@@H](O)[C@H](O)CC[C@@H](O)C[C@@H](O)CC(=O)O[C@H]1C)C[C@H](O)[C@H]2C(=O)O [AMPHOTERICIN B]	23.8	–	–
–	CC1CS(=O)(=O)CCN1/N=C/c1ccc([N+](=O)[O-])o1 (stereo not drawn) [NIFURTIMOX]	–	2.9	> 100
